Consider four molecules from BindingDB's records for doi:10.1021/jm050175p (Wyeth Research, 2005).

The structures appear in SMILES notation.

In the test the target is Tyrosine-protein kinase ABL1 (Homo sapiens, UniProt P00519). The experiment in a line: Homogeneous Time-resolved Fluorescence (HTRF) Assay. (In general: Time-resolved FRET reads energy transfer from a long-lived donor to a nearby acceptor.)
Tyrosine-protein kinase ABL1, sequence (P00519 whole entry): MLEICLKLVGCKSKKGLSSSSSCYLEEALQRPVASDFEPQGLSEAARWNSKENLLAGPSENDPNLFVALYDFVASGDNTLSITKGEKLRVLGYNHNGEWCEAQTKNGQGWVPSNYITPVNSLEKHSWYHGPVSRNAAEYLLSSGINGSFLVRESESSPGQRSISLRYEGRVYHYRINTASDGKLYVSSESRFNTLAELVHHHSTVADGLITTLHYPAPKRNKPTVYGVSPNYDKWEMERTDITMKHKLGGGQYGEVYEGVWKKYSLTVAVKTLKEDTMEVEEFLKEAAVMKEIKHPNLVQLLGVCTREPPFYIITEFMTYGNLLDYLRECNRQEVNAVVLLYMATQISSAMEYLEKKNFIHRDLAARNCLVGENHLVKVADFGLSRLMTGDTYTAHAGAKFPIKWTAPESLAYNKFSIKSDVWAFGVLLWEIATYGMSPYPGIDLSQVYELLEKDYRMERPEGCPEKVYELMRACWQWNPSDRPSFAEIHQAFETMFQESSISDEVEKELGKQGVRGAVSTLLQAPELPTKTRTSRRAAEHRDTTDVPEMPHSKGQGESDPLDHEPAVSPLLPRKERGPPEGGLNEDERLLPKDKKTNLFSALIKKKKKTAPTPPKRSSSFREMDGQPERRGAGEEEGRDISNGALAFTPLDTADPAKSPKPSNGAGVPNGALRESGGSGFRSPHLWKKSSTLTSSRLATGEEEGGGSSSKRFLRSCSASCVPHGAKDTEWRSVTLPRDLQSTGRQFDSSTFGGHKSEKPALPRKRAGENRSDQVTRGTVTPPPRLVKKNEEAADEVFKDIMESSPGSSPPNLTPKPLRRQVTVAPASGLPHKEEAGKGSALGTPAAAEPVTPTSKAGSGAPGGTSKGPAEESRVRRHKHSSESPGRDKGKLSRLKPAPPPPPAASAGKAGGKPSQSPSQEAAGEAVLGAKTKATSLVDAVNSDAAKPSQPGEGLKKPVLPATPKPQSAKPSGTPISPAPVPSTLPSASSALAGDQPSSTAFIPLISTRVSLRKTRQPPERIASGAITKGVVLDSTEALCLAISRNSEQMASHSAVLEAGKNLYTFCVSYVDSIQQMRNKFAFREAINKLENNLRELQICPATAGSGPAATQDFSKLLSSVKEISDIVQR
Take `COc1cc(Nc2c(C#N)cnc3cc(OC4CCN(C)CC4)c(OC)cc23)c(Cl)cc1Cl` [4-[(2,4-dichloro-5-methoxyphenyl)amino]-6-methoxy-7-[(1-methylpiperidin-4-yl)oxy]quinoline-3-carbonitrile]: the 50% inhibitory concentration (IC50) (in general, the concentration that inhibits the measured activity by half) is 89 nM. Next, `CCOc1cc(Nc2c(C#N)cnc3cc(OCC4CCN(C)CC4)c(OC)cc23)c(Cl)cc1Cl` [4-[(2,4-Dichloro-5-ethoxyphenyl)amino]-6-methoxy-7-[(1-methylpiperidin-4-yl)methoxy]quinoline-3-carbonitrile]: 1500 nM. The molecule `COc1cc(Nc2c(C#N)cnc3cc(OCC4CCCN(C)C4)c(OC)cc23)c(Cl)cc1Cl` (centres undefined) [4-[(2,4-dichloro-5-methoxyphenyl)amino]-6-methoxy-7-[(1-methylpiperidin-3-yl)methoxy]quinoline-3-carbonitrile] registered a concentration for half-maximal inhibition (IC50) of 4.6 nM. Next, `COc1cc(Nc2c(C#N)cnc3cc(OCC4CCCCN4C)c(OC)cc23)c(Cl)cc1Cl` (centres undefined) [4-[(2,4-dichloro-5-methoxyphenyl)amino]-6-methoxy-7-[(1-methylpiperidin-2-yl)methoxy]quinoline-3-carbonitrile]: 56 nM.
